Measurements as given in ChEMBL document CHEMBL1201862, “PubChem BioAssay data set” (2004).
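48-hour exposure; five concentrations; linearly interpolated endpoints. Here, GI50 denotes the concentration required for 50% inhibition of growth.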 Calls of active or inactive are those of the source. Cut-off read from the data, not from the text of the source: active = GI50 up to about 1.1 µM and inactive = higher.

Assays:
Assay in all cases: growth of human tumour cells (NCI), 48 h
OVCAR-3 = test system: OVCAR-3
NCI-H23 = test system: NCI-H23
LOX IMVI = test system: LOX IMVI
DMS-273 = test system: DMS-273
ACHN = test system: ACHN
CAKI-1 = test system: CAKI-1
SF-539 = test system: SF-539
SF-295 = test system: SF-295
SNB-75 = test system: SNB-75
M14 = test system: M14
NCI-H460 = test system: NCI-H460
XF498 = test system: XF498
RXF 631 = test system: RXF 631
K562 = test system: K562
COLO 205 = test system: COLO 205
786-0 = test system: 786-0
OVCAR-5 = test system: OVCAR-5
SW-620 = test system: SW-620
HT-29 = test system: HT-29
Malme-3M = test system: Malme-3M
HCC 2998 = test system: HCC 2998
HCT-15 = test system: HCT-15
DLD-1 = test system: DLD-1
HOP-62 = test system: HOP-62
EKVX = test system: EKVX
UACC-257 = test system: UACC-257
U-251 = test system: U-251
DMS-114 = test system: DMS-114
SNB-78 = test system: SNB-78
SK-MEL-2 = test system: SK-MEL-2
OVCAR-8 = test system: OVCAR-8
A549 = test system: A549
SF-268 = test system: SF-268
UO-31 = test system: UO-31
SN12C = test system: SN12C
HOP-18 = test system: HOP-18
OVCAR-4 = test system: OVCAR-4
KM-20L2 = test system: KM-20L2
RXF 393 = test system: RXF 393
KM12 = test system: KM12
MOLT-4 = test system: MOLT-4
SK-MEL-28 = test system: SK-MEL-28
SK-MEL-5 = test system: SK-MEL-5
UACC-62 = test system: UACC-62
SNB-19 = test system: SNB-19
SK-OV-3 = test system: SK-OV-3
M19-MEL = test system: M19-MEL
CCRF-CEM = test system: CCRF-CEM
IGROV-1 = test system: IGROV-1
A498 = test system: A498
LXFL 529 = test system: LXFL 529
RPMI-8226 = test system: RPMI-8226
TK-10 = test system: TK-10

In the case of COc1cc(OC)c(C(=O)c2cccs2)cc1N, the GI50 (OVCAR-3) is reported as > 100 µM (inactive), the GI50 (NCI-H23) is reported as > 100 µM (inactive) and the GI50 (LOX IMVI) is reported as > 100 µM (inactive). For the same compound, the GI50 (DMS-273) was > 100 µM (inactive), the GI50 (ACHN) was > 100 µM (inactive) and the GI50 (CAKI-1) was > 100 µM (inactive). For the same compound, the GI50 (SF-539) was > 100 µM (inactive), the GI50 (SF-295) was > 100 µM (inactive) and the GI50 (SNB-75) was > 100 µM (inactive). For the same compound, the GI50 (M14) was > 100 µM (inactive), the GI50 (NCI-H460) was > 100 µM (inactive) and the GI50 (XF498) was > 100 µM (inactive). The GI50 (RXF 631) was > 100 µM (inactive), the GI50 (K562) was > 100 µM (inactive) and the GI50 (COLO 205) was > 100 µM (inactive). For the same compound, the GI50 (786-0) was > 100 µM (inactive), the GI50 (OVCAR-5) was > 100 µM (inactive) and the GI50 (SW-620) was > 100 µM (inactive). The GI50 (HT-29) was > 100 µM (inactive), the GI50 (Malme-3M) was > 100 µM (inactive) and the GI50 (HCC 2998) was > 100 µM (inactive). For the same compound, the GI50 (HCT-15) was > 100 µM, the GI50 (DLD-1) was > 100 µM (inactive) and the GI50 (HOP-62) was > 100 µM (inactive). The GI50 (EKVX) was > 100 µM (inactive), the GI50 (UACC-257) was > 100 µM (inactive) and the GI50 (U-251) was > 100 µM (inactive). The GI50 (DMS-114) was > 100 µM (inactive), the GI50 (SNB-78) was > 100 µM (inactive) and the GI50 (SK-MEL-2) was > 100 µM (inactive). For the same compound, the GI50 (OVCAR-8) was > 100 µM (inactive), the GI50 (A549) was > 100 µM (inactive) and the GI50 (SF-268) was > 100 µM (inactive). The GI50 (UO-31) was 96.6 µM (inactive), the GI50 (SN12C) was > 100 µM (inactive) and the GI50 (HOP-18) was 23.7 µM (inactive). For the same compound, the GI50 (OVCAR-4) was > 100 µM (inactive), the GI50 (KM-20L2) was > 100 µM (inactive) and the GI50 (RXF 393) was > 100 µM (inactive). For the same compound, the GI50 (KM12) was > 100 µM (inactive), the GI50 (MOLT-4) was > 100 µM (inactive) and the GI50 (SK-MEL-28) was > 100 µM (inactive). For the same compound, the GI50 (SK-MEL-5) was > 100 µM (inactive), the GI50 (UACC-62) was > 100 µM (inactive) and the GI50 (SNB-19) was > 100 µM (inactive). For the same compound, the GI50 (SK-OV-3) was > 100 µM (inactive), the GI50 (M19-MEL) was > 100 µM (inactive) and the GI50 (CCRF-CEM) was > 100 µM (inactive). The GI50 (IGROV-1) was > 100 µM (inactive), the GI50 (A498) was > 100 µM (inactive) and the GI50 (LXFL 529) was > 100 µM (inactive). For the same compound, the GI50 (RPMI-8226) was > 100 µM (inactive) and the GI50 (TK-10) was > 100 µM (inactive).
